From US20040242502A1, “Semi-synthetic saponin analogs with carrier and immune stimulatory activities for DNA and RNA vaccines” (Galenica Pharmaceuticals, Inc., priority 2003, published 2004)
“And” between values parts separate entries of the source, which are not always exact repeats. Equal values may be shown once.

Tested on: Female Balb/c mice
Assay: Immunization of Balb/c mice with OVA cDNA in the presence and absence of DMPS; anti-OVA antibody ELISA of serum
Type: in vivo
Conditions: anti-OVA ELISA on OVA coated plates, serum dilution 1:100, bled 14 days after last immunization, i.m. days 1 and 15, 20 OVA DNA alone or +50 DMPS
Method: Female Balb/c mice were immunized intramuscularly at days 1 and 15 with 0.2 mL of phosphate buffered saline solution (PBS) containing 20 μg of chicken OVA cDNA alone or with 50 μg of 3-dimethylamino-1-propylamino-DS-saponin (DMPS). The complete OVA cDNA was sub-cloned into a mammalian expression vector containing the human β-actin promotor and the neomycin resistant gene, under control of the SV40 promotor, to yield pAC-Neo-OVA. Negative control animals received PBS only. Animals were bled 14 days after the last immunization. Total IgG and IgG2a were determined by ELISA using OVA coated plates and a serum dilution of 1:100. The serum dilution was incubated at 37° C. for 1 hour and the plates were washed. After incubation with anti IgG-HRP conjugate, the plates were washed and developed with a TMB substrate for 15 minutes at room temperature, stopped by the addition of 0.18 M sulfuric acid, and read at 450 nm.

Substance: 3-dimethylamino-1-propylamino-DS-saponin [DMPS]
- Absorbance (450 nm), Average (average of 5 mice ± spread): 0.188 ± 0.093
- Absorbance (450 nm), individual mice (mice 1-5): 0.400 and 0.210 and 0.092 and 0.140 and 0.100
